Source: patent US9120749B2, “Quinoline derivatives and MELK inhibitors containing the same” (ONCOTHERAPY SCIENCE, INC., priority 2010, dated 2015)
Structures can show the parent of a compound that is named as a salt. Where two headings read alike, the source gives them in different places.

Columns and labels:
[1] = molecular target: MELK (Homo sapiens, UniProt Q14680); experiment: Kinase assay: MELK activity, phosphorylation of FITC-labeled histone H3 peptide measured by IMAP fluorescence polarization; format: biochemical; conditions: read-out: IC50 (μM) (kinase assay)
Chain of MELK (Q14680 whole entry, looked up): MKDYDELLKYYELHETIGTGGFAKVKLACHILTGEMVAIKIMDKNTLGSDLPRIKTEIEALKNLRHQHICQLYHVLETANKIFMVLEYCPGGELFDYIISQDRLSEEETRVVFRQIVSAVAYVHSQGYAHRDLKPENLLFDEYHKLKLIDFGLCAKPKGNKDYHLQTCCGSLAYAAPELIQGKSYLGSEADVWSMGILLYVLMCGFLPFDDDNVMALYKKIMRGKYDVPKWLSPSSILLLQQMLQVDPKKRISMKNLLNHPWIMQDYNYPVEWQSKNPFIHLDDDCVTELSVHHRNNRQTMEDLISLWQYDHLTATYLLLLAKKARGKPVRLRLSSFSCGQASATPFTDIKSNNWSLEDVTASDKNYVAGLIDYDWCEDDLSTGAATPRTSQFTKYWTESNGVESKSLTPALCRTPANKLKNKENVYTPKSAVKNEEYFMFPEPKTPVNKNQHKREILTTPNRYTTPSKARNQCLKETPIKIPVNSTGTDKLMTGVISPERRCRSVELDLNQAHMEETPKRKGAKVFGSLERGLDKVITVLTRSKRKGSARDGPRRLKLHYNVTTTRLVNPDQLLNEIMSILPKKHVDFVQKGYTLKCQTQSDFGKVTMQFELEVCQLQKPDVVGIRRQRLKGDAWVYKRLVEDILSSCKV
In short: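 A FITC-labelled histone H3 peptide served as substrate, with compounds serially diluted to 1% DMSO final. Reactions were stopped with three volumes of IMAP progressive binding solution. After 0.5 h at room temperature, fluorescence polarization was read.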

[2] = tested on: T47D cells; experiment: Cell-based assay: anti-proliferative activity, Cell Counting Kit-8, 72 hours (T47D)
In short: (§1)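 T47D, A549 and BT-549 cells, with MELK-negative HT-1197 as control (MELK status checked by western blot), seeded at 2,000–3,000 cells/well. Growth measured by CCK-8 72 hours after inhibitor exposure; IC50 values calculated.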

[3] = tested on: A549 cells; experiment: Cell-based assay: anti-proliferative activity, Cell Counting Kit-8, 72 hours (A549); conditions: 72 hours
In short: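 A549 cells seeded in 96-well plates and exposed to candidate inhibitors for 72 hours. Growth measured with Cell Counting Kit-8; IC50 values calculated from the dose response.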

[4] = tested on: HT-1197 cells; experiment: Cell-based assay: anti-proliferative activity, Cell Counting Kit-8, 72 hours (HT-1197, negative control without MELK expression); conditions: HT1197 cells (negative control), 72 hours
In short: as §1

[5] = tested on: DU4475 cells; experiment: Cell-based assay: anti-proliferative activity, Cell Counting Kit-8, 72 hours (DU4475)

Structure (SMILES) | IC50 ([1]; hydrochloride) | IC50 ([2]; 72 hours, hydrochloride) | IC50 ([3]; hydrochloride) | IC50 ([4]; hydrochloride) | IC50 ([5]; hydrochloride) | IC50 [1] | IC50 ([2]; Homo sapiens, T47D, 72 h) | IC50 ([3]; Homo sapiens, A549, 72 h) | IC50 ([4]; Homo sapiens, HT1197, 72 h) | IC50 ([5]; Homo sapiens, DU-4475, 72 h)
NC1CCN(c2ccc(Nc3c(C(=O)C4CC4)cnc4ccc(-c5cc(Cl)c(O)c(Cl)c5)cc34)cn2)CC1 [Example 549, (4-(6-(4-Aminopiperidin-1-yl)pyridin-3-ylamino)-6-(3,5-dichloro-4-hydroxyphenyl)quinolin-3-1)(cyclopropyl)methanone hydrochloride] | 0.0027 µM | 0.15 µM | 0.48 µM | 3.2 µM | 0.078 µM |  |  |  |  | 
O=C(c1cnc2ccc(-c3cc(F)c(O)c(Cl)c3)cc2c1Nc1ccc(NC2CCCNC2)nc1)C1CC1 (centres unmarked) [Example 611, (6-(3-chloro-5-fluoro-4-hydroxyphenyl)-4-(6-(piperidin-3-ylamino)pyridin-3-ylamino)quinolin-3-yl)(cyclopropyl)methanone] |  |  |  |  |  | 0.0023 µM | 0.13 µM | 0.57 µM | 10 µM | 0.39 µM
CN[C@H]1CC[C@H](Nc2c(C(=O)C3CC3)cnc3ccc(-c4cnc(C#N)nc4)cc23)CC1 [Example 522] |  |  |  |  |  | 0.0014 µM | 0.23 µM | 0.95 µM | 1.1 µM | 0.91 µM
CN(C)Cc1cccc(Nc2c(C(=O)C3CC3)cnc3ccc(-c4cc(F)c(O)c(Cl)c4)cc23)c1 [Example 629, (6-(3-chloro-5-fluoro-4-hydroxyphenyl)-4-(3-((dimethylamino)methyl)phenylamino)quinolin-3-yl)(cyclopropyl)methanone] |  |  |  |  |  | 0.0051 µM | 0.58 µM | 0.12 µM | 3.3 µM | 0.069 µM
CC(=O)c1cnc2ccc(-c3cc(F)c(O)c(Cl)c3)cc2c1N[C@H]1CC[C@H](N)CC1 [Example 527, 1-(4-((trans-4-aminocyclohexyl)amino)-6-(3-chloro-5-fluoro-4-hydroxyphenyl)quinolin-3-yl)ethanone] |  |  |  |  |  | 0.015 µM | 0.034 µM | 0.42 µM | 10 µM | 0.02 µM
COC1CCN(C[C@H]2CC[C@H](Nc3c(C(=O)C4CC4)cnc4ccc(-c5cc(F)c(O)c(Cl)c5)cc34)CC2)C1 (stereo partly drawn) [Example 627, (6-(3-chloro-5-fluoro-4-hydroxyphenyl)-4-((trans-4-((3-methoxypyrrolidin-1-yl)methyl)cyclohexyl)amino)quinolin-3-yl)(cyclopropyl)methanone] |  |  |  |  |  | 0.024 µM | 0.15 µM | 0.11 µM | 0.55 µM | 0.083 µM
COc1cc(-c2ccc3ncc(C(=O)C4CC4)c(Nc4ccc(N5CCNCC5)cn4)c3c2)cc(Cl)c1O [Example 528, (6-(3-chloro-4-hydroxy-5-methoxyphenyl)-4-(5-(piperazin-1-yl)pyridin-2-ylamino)quinolin-3-yl)(cyclopropyl)methanone hydrochloride] |  |  |  |  |  | 0.0044 µM | 1.8 µM | 1.3 µM | 4.2 µM | 1.7 µM
NC1CCN(c2ccc(Nc3c(C(=O)C4CC4)cnc4ccc(-c5cc(Cl)c(O)c(Cl)c5)cc34)cn2)CC1 [Example 548, (4-(6-(4-aminopiperidin-1-yl)pyridin-3-ylamino)-6-(3,5-dichloro-4-hydroxyphenyl)quinolin-3-yl)(cyclopropyl)methanone] |  |  |  |  |  | 0.002 µM | 0.097 µM | 0.45 µM | 3.4 µM | 0.099 µM
COC1CCN(C[C@H]2CC[C@H](Nc3c(C(=O)C4CC4)cnc4ccc(-c5cc(Cl)c(O)c(Cl)c5)cc34)CC2)C1 (stereo partly drawn) [Example 598, cyclopropyl(6-(3,5-dichloro-4-hydroxyphenyl)-4-((trans-4-((3-methoxypyrrolidin-1-yl)methyl)cyclohexyl)amino)quinolin-3-yl)methanone] |  |  |  |  |  | 0.0023 µM | 0.18 µM | 0.13 µM | 1 µM | 0.066 µM
NC1CCCN(c2ccc(Nc3c(C(=O)C4CC4)cnc4ccc(-c5cc(F)c(O)c(Cl)c5)cc34)cn2)C1 (centres unmarked) [Example 561, (4-(6-(3-aminopiperidin-1-yl)pyridin-3-ylamino)-6-(3-chloro-5-fluoro-4-hydroxyphenyl)quinolin-3-yl)(cyclopropyl)methanone] |  |  |  |  |  | 0.0027 µM | 0.0055 µM | 0.008 µM | 0.3 µM | 0.0066 µM
NC[C@H]1CC[C@@H](Nc2c(C(=O)C3CC3)cnc3ccc(-c4cc(F)c(O)c(Cl)c4)cc23)CC1 [Example 515, (4-((1s,4s)-4-(aminomethyl)cyclohexylamino)-6-(3-chloro-5-fluoro-4-hydroxyphenyl)quinolin-3-yl)(cyclopropyl)methanone] |  |  |  |  |  | 0.0034 µM | 0.23 µM | 0.83 µM | 3.9 µM | 0.12 µM
O=C(c1cnc2cc(F)c(-c3cc(Cl)c(O)c(Cl)c3)cc2c1Nc1ccc(N2CCNCC2)nc1)C1CC1 [Example 559, cyclopropyl(6-(3,5-dichloro-4-hydroxyphenyl)-7-fluoro-4-(6-(piperazin-1-yl)pyridin-3-ylamino)quinolin-3-yl)methanone] |  |  |  |  |  | 0.01 µM | 0.46 µM | 0.59 µM | 3.2 µM | 0.35 µM
O=C(c1cnc2ccc(-c3cc(Cl)c(O)c(Cl)c3)cc2c1Nc1ccc(NC2CCCNC2)nc1)C1CC1 (centres unmarked) [Example 610, cyclopropyl(6-(3,5-dichloro-4-hydroxyphenyl)-4-(6-(piperidin-3-ylamino)pyridine-3-ylamino)quinolin-3-yl)methanone] |  |  |  |  |  | 0.0017 µM | 0.22 µM | 0.39 µM | 10 µM | 0.073 µM
CCCC(=O)c1cnc2ccc(-c3cc(Cl)c(O)c(Cl)c3)cc2c1N[C@H]1CC[C@H](N)CC1 [Example 535, 1-(4-((trans-4-aminocyclohexyl)amino)-6-(3,5-dichloro-4-hydroxyphenyl)quinolin-3-yl)butan-1-one] |  |  |  |  |  | 0.0024 µM | 0.077 µM | 0.24 µM | 3.3 µM | 0.025 µM
COc1cc(-c2ccc3ncc(C(=O)C4CC4)c(C4=CCNCC4)c3c2)cc(Cl)c1O [Example 516, (6-(3-chloro-4-hydroxy-5-methoxyphenyl)-4-(1,2,3,6-tetrahydropyridin-4-yl)quinolin-3-yl)(cyclopropyl)methanone] |  |  |  |  |  | 0.0044 µM | 0.52 µM | 0.36 µM | 3 µM | 0.66 µM
COc1cc(-c2ccc3ncc(C(C)=O)c(Nc4cnc(N5CCNCC5)nc4)c3c2)cc(Cl)c1O [Example 616, 1-(6-(3-chloro-4-hydroxy-5-methoxyphenyl)-4-(2-(piperazin-1-yl)pyrimidin-5-ylamino)quinolin-3-yl)ethanone] |  |  |  |  |  | 0.0044 µM | 0.22 µM | 0.66 µM | 1.8 µM | 0.5 µM
CCCC(=O)c1cnc2ccc(-c3cc(Cl)c(O)c(OC)c3)cc2c1N[C@H]1CC[C@H](N)CC1 [Example 529, 1-(4-((trans-4-aminocyclohexyl)amino)-6-(3-chloro-4-hydroxy-5-methoxyphenyl)quinolin-3-yl)butan-1-one] |  |  |  |  |  | 0.0038 µM | 0.081 µM | 0.15 µM | 1.5 µM | 0.076 µM
CCCC(=O)c1cnc2ccc(-c3cc(F)c(O)c(Cl)c3)cc2c1N[C@H]1CC[C@H](CN(C)C)CC1 [Example 597, 1-{6-(3-Chloro-5-fluoro-4-hydroxyphenyl)-4-[trans-4-((dimethylamino)methyl)cyclohexylamino]quinolin-3-yl}butan-1-one] |  |  |  |  |  | 0.0073 µM | 0.11 µM | 0.16 µM | 1.1 µM | 0.083 µM
CN(C)C[C@H]1CC[C@@H](Nc2c(C(=O)C3CC3)cnc3ccc(-c4cc(F)c(O)c(Cl)c4)cc23)CC1 [Example 514, (6-(3-chloro-5-fluoro-4-hydroxyphenyl)-4-((1s,4s)-4-((dimethylamino)methyl)cyclohexylamino)quinolin-3-yl)(cyclopropyl)methanone] |  |  |  |  |  | 0.0028 µM | 0.44 µM | 0.26 µM | 0.77 µM | 0.21 µM
CCCC(=O)c1cnc2ccc(-c3cc(F)c(O)c(Cl)c3)cc2c1Nc1ccc(CN(C)C)cc1 [Example 537, 1-(6-(3-chloro-5-fluoro-4-hydroxyphenyl)-4-((4-((dimethylamino)methyl)phenyl)amino)quinolin-3-yl)butan-1-one] |  |  |  |  |  | 0.016 µM | 0.11 µM | 0.15 µM | 0.94 µM | 0.098 µM
CCCC(=O)c1cnc2ccc(-c3cc(Cl)c(O)c(OC)c3)cc2c1Nc1ccc(CN(C)C)cc1 [Example 538, 1-(6-(3-chloro-4-hydroxy-5-methoxyphenyl)-4-(4-((dimethylamino)methyl)phenylamino)quinolin-3-yl)butan-1-one] |  |  |  |  |  | 0.02 µM | 0.28 µM | 0.45 µM | 3.1 µM | 0.27 µM
CN(C)CCc1ccc(Nc2c(C(=O)C3CC3)cnc3ccc(-c4cc(F)c(O)c(Cl)c4)cc23)cc1 [Example 615, (6-(3-chloro-5-fluoro-4-hydroxyphenyl)-4-(4-(2-(dimethylamino)ethyl)phenylamino)quinolin-3-yl)(cyclopropyl)methanone] |  |  |  |  |  | 0.0082 µM | 0.17 µM | 0.086 µM | 1.4 µM | 0.042 µM
